For data set [1], the target named is T1, CYP2B6 (Homo sapiens, UniProt P20813).
T1 construct: consisting of pooled HLMs (0.5 mg/ml) or RLMs (1 mg/ml) and an NADPH-regenerating system; tissue Corning Gentest Corporation; host or cells: pooled human liver microsomes (n = 20)
T1 sequence (P20813 1-491): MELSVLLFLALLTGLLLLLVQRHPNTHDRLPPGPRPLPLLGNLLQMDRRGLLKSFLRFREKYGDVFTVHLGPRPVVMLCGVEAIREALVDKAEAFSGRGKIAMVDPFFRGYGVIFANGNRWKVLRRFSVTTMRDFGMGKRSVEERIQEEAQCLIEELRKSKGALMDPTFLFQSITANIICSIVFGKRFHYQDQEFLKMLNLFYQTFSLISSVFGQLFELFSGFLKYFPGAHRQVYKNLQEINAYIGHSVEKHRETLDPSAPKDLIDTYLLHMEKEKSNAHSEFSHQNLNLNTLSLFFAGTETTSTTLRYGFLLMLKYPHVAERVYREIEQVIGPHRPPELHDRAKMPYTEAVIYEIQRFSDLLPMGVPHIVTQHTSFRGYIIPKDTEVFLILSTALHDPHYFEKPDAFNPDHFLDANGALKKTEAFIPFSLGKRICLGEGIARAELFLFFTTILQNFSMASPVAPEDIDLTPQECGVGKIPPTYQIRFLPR
Kind of data set: biochemical. Type of data set: in vitro ADME. On the procedure:
(§1) Microsomal incubation was carried out at 37 °C in a mixture of 200 μl in 0.05 M Tris/HCl buffer (pH 7.4) consisting of pooled HLMs (0.5 mg/ml) or RLMs (1 mg/ml) and an NADPH-regenerating system including MgCl2 (5 mM), G6P (10 mM), G6PDH (0.4 U/ml) and NADP (1 mM). Substrates were added into the incubation mixture and obtained the final concentrations (10 μM phenacetin for CYP1A2, 20 μM bupropion for CYP2B1/6, 20 μM tolbutamide for CYP2C9/11, 5 μM dextromethorphan for CYP2D1/6, 20 μM chlorzoxazone for CYP2E1 and 10 μM midazolam for CYP3A2/4), which were close to Km respectively. The proportion of organic solvent was not higher than 1% (v/v) in the incubation mixture. After pre-incubation for 5 min, the reaction was initiated by addition of NADP. Incubations were performed for 20 min, stopped by adding 200 μl ice-cold acetonitrile. And then 20 μl internal standard solution was added (3-acetamidophenol 2 μg/ml, chlorpropamide 2 μg/ml and mebendazole 2 μg/ml). The solution was mixed thoroughly for 3 min and centrifuged for 10 min at 16,000 × g at 4 °C. The supernatant (60 μl) was transferred to autosampler vials, and 2 μl was injected into LC-MS/MS system.
(§2) The IC50 (concentration of inhibitor to cause 50% inhibition of original enzyme activity) values were determined with the same incubation condition above. The specific concentrations of plumbagin were ranged from 0.1 μM to 50 μM. The IC50 values were calculated by plotting relative activities over the logarithm of plumbagin concentrations using GraphPad Prism 5.0 (GraphPad software Inc., CA, USA).
(§3) Cocktail probe substrates were then added and incubated for 20 min. Reactions were stopped with 200 μl ice-cold acetonitrile. The samples were treated according to the microsomal incubation method and then injected into LC-MS/MS for analysis.
(§4) Kinetic studies were performed for determining the types of inhibition on CYP by plumbagin. Pooled HLMs (0.5 mg/ml) or RLMs (1 mg/ml) with plumbagin (1 μM, 2 μM, 5 μM and 10 μM) were incubated in 0.05 M Tris/HCl buffer (pH 7.4) for 20 min at 37 °C. A series of concentrations for cocktail probe substrates were used: 2.5–20 μM phenacetin for CYP1A2; 5–40 μM bupropion for CYP2B1/6; 5–40 μM tolbutamide for CYP2C9/11; 1.25–10 μM dextromethorphan for CYP2D1/6; 5–40 μM chlorzoxazone for CYP2E1; 2.5–80 μM midazolam for CYP3A2; and 0.625–5 μM midazolam for CYP3A4. Enzyme kinetics as well as statistical analysis were performed using GraphPad Prism 5.0.
(§5) All data were presented as mean ± SD. The IC50 values were fitted by non-linear regression analysis using GraphPad Prism 5.0. The kinetic parameters were obtained by fitting velocity data to kinetic models (Michaelis-Menten) using GraphPad Prism 5.0. The Lineweaver-Burk Plot (the reciprocal of reaction velocities versus the reciprocal of substrates concentrations) was used to determine the quality of fit to a specific inhibition model. The inhibition constant (Ki) was obtained by a secondary plot using the slopes of the primary Lineweaver-Burk Plot (Km/Vmax versus inhibitor concentrations). αKi was obtained from a secondary plot using the y-intercepts of the Lineweaver-Burk plot (1/Vmax versus inhibitor concentrations). All results were analyzed in quadruplicate. One-way analysis of variance was used to estimate the significance of differences. There was statistical significance between control and test groups if p < 0.05.

The target in data set [2] is T2, CYP3A4 (Homo sapiens, UniProt P08684).
T2 construct: consisting of pooled HLMs (0.5 mg/ml) or RLMs (1 mg/ml) and an NADPH-regenerating system; tissue Corning Gentest Corporation; host or cells: pooled human liver microsomes (n = 20)
Put plainly: biochemical. The format is in vitro ADME. On the procedure:
as §1, §2, §3, §4, §5

In data set [3] the target is T3, CYP1A2 (Homo sapiens, UniProt P05177).
T3 construct: consisting of pooled HLMs (0.5 mg/ml) or RLMs (1 mg/ml) and an NADPH-regenerating system; tissue Corning Gentest Corporation; host or cells: pooled human liver microsomes (n = 20)
T3 sequence (P05177 1-516): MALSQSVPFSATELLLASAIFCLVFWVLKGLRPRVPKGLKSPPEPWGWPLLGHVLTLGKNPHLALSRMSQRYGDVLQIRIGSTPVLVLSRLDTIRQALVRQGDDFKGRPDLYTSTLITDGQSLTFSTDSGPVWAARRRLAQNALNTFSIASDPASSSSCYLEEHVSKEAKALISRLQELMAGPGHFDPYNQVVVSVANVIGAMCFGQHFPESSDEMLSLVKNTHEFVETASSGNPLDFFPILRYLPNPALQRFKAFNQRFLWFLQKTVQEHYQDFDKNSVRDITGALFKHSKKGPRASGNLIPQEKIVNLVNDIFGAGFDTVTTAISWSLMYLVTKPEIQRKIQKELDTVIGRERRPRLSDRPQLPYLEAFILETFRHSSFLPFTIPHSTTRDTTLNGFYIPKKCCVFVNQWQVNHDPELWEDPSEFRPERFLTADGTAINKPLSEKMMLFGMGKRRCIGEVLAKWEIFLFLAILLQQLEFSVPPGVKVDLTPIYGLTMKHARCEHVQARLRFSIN
Put plainly: biochemical. The format is in vitro ADME. On the procedure: as §1, §2, §3, §4, §5

The conditions of data set [4]: rat, in vivo, po, 100 mg/kg; cited from earlier work.

T2 sequence (P08684 whole entry): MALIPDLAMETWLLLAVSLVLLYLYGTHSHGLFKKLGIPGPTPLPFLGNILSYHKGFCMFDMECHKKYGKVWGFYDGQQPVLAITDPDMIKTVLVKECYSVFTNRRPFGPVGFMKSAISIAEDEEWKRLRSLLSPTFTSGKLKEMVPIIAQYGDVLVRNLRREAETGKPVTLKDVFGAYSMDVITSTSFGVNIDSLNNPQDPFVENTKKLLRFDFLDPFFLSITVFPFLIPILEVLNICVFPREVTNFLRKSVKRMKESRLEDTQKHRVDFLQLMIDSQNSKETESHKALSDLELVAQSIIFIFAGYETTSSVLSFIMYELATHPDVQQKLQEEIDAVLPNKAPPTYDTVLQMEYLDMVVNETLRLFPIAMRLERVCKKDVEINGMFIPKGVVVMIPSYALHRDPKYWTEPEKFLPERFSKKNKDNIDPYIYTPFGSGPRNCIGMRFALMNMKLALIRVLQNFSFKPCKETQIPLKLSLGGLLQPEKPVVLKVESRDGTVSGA

As for `CC1=CC(=O)c2c(O)cccc2C1=O` [plumbagin, 5-hydroxy-2-methyl-1,4-naphthoquinone], in data set [1], the concentration for half-maximal inhibition (IC50) is 13.1 µM, the Ki was found to be 1.62 µM and the Type of inhibition result is recorded as “mixed-type”. In addition, in data set [1] (human, 20 min, pH 7.4), the α turned out to be 0.55 and the αKi was 2.92 µM. Further, in data set [2], the IC50 stood at 6.45 µM, the inhibition constant Ki is 0.88 µM and the Type of inhibition result is given as “mixed-type”. In data set [2] (human, 20 min, pH 7.4), this compound had a α of 1.54 and a αKi of 0.57 µM. Besides, in data set [3], the IC50 is 7.49 µM, the Ki is 0.15 µM and the Type of inhibition result was “non-competitive”. In data set [3] (human, 20 min, pH 7.4), the α amounted to 0.94 and the αKi stood at 0.16 µM. Also, in data set [4], the Cmax is 1860 nM, the “area under the curve (AUC) in the plasma” value is 271.9 µg·min/mL, the “half-life (t1/2) in the plasma” value was 17.13 h and the “peak concentration (Cmax) in the plasma” value was 350 ng/mL.

For orientation: IC50 means the concentration needed to halve the response being measured. The low end stands for higher potency, the high end for lower potency. For orientation: Ki means a measure of affinity in units of concentration, obtained from inhibition or displacement. A high value points to weaker binding. As a reminder, the Cmax is the peak of the concentration-time curve.

Source of the values: PMC4916434, “Evaluation of the inhibition potential of plumbagin against cytochrome P450 using LC-MS/MS and cocktail approach” (Scientific Reports, 2016).
